# In patent publication US20250270200A1, “CTPS1 INHIBITORS AND USES THEREOF” (Nimbus Clotho, Inc., priority 2022, published 2025):
# Values joined by “and” are separate entries in the source; they are usually repeats but may differ in a detail not shown here. Equal entries are not always repeated.
# Target: T1, human CTPS1 (Homo sapiens, UniProt P17812)
# T1 sequence (P17812 1-591): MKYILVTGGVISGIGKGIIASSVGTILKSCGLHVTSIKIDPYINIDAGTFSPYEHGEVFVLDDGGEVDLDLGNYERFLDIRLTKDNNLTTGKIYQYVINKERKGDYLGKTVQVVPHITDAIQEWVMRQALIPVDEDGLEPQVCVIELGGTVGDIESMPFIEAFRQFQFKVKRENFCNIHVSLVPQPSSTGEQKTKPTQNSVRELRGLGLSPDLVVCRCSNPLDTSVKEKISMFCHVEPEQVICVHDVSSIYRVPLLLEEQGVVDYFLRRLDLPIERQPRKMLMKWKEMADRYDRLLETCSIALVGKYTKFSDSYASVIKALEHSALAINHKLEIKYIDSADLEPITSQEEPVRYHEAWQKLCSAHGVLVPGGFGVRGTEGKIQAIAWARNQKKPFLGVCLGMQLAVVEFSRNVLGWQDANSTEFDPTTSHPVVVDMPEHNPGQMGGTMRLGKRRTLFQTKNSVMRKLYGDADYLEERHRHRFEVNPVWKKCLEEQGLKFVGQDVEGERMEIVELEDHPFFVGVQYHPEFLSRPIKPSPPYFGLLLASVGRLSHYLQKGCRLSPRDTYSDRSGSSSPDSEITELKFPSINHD
# Test: ADP-Glo assay, human CTPS1 enzyme inhibition
# Assay type: biochemical
# Settings: wild-type human CTPS1, 25 nM enzyme; ADP-Glo; read-out: ADP-Glo_WT_hCTPS1—25 nM_IC50 (IC50)
# Summary of the method: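 ADP-Glo luminescence quantified ADP produced by 25 nM purified human CTPS1 (full length, FLAG-His tagged) at 25° C within the linear phase. Final substrates: ATP 120 μM, UTP 160 μM, GTP 60 μM, L-glutamine 100 μM; 1% DMSO; pH 7.4 HEPES buffer with Mg2+, KCl, DTT. Compound pre-incubated with enzyme 10 min, then with ATP/UTP 10 min.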
row,Compound,IC50
1,"O=C(N[C@H](c1cc(NS(=O)(=O)C2CC2)ccn1)C1CCOCC1)c1ncc(-c2cnn3ccc(Cl)cc23)s1 [I-85, (S)-5-(5-chloropyrazolo[1,5-a]pyridin-3-yl)-N-((4-(cyclopropanesulfonamido)pyridin-2-yl)(tetrahydro-2H-pyran-4-yl)methyl)thiazole-2-carboxamide]",25 to 50 nM
2,"O=C(N[C@@H](c1cc(NS(=O)(=O)C2CC2)ccn1)C1CCOCC1)c1ncc(-c2cnn3ccc(Cl)cc23)s1 [I-86, (R)-5-(5-chloropyrazolo[1,5-a]pyridin-3-yl)-N-((4-(cyclopropanesulfonamido)pyridin-2-yl)(tetrahydro-2H-pyran-4-yl)methyl)thiazole-2-carboxamide]",5 to 25 nM
3,"CCOc1cncc(-c2cnc(C(=O)N[C@]3(c4cc(NS(=O)(=O)C5CC5)ccn4)C[C@H](O)C3)s2)n1 [I-87, N-((1s,3s)-1-(4-(cyclopropanesulfonamido)pyridin-2-yl)-3-hydroxycyclobutyl)-5-(6-ethoxypyrazin-2-yl)thiazole-2-carboxamide]",≤ 5 nM
4,"CCOc1cncc(-c2cnc(C(=O)N[C@]3(c4cc(NS(=O)(=O)C5CC5)ccn4)C[C@@H](O)C3)s2)n1 [I-88, N-((1r,3r)-1-(4-(cyclopropanesulfonamido)pyridin-2-yl)-3-hydroxycyclobutyl)-5-(6-ethoxypyrazin-2-yl)thiazole-2-carboxamide]",≤ 5 nM
5,"O=C(N[C@]1(c2cc(NS(=O)(=O)C3CC3)ccn2)C[C@H](O)C1)c1ncc(-c2cnn3ccc(Cl)cc23)s1 [I-89, 5-(5-chloropyrazolo[1,5-a]pyridin-3-yl)-N-((1s,3s)-1-(4-(cyclopropanesulfonamido)pyridin-2-yl)-3-hydroxycyclobutyl)thiazole-2-carboxamide]",5 to 25 nM
6,"O=C(N[C@]1(c2cc(NS(=O)(=O)C3CC3)ccn2)C[C@@H](O)C1)c1ncc(-c2cnn3ccc(Cl)cc23)s1 [I-90, 5-(5-chloropyrazolo[1,5-a]pyridin-3-yl)-N-((1r,3r)-1-(4-(cyclopropanesulfonamido)pyridin-2-yl)-3-hydroxycyclobutyl)thiazole-2-carboxamide]",5 to 25 nM
7,"CCOc1cncc(-c2cnc(C(=O)N[C@@H](c3cc(NS(=O)(=O)C4CC4)ccn3)C(C)(C)OC)s2)n1 [I-91, (S)-N-(1-(4-(cyclopropanesulfonamido)pyridin-2-yl)-2-methoxy-2-methylpropyl)-5-(6-ethoxypyrazin-2-yl)thiazole-2-carboxamide]",5 to 25 nM
8,"CCOc1cncc(-c2cnc(C(=O)N[C@H](c3cc(NS(=O)(=O)C4CC4)ccn3)C(C)(C)OC)s2)n1 [I-92, (R)-N-(1-(4-(cyclopropanesulfonamido)pyridin-2-yl)-2-methoxy-2-methylpropyl)-5-(6-ethoxypyrazin-2-yl)thiazole-2-carboxamide]",25 to 50 nM
9,"CCOc1cncc(-c2cnc(C(=O)N[C@H](c3cc(NS(=O)(=O)C4CC4)ccn3)[C@H]3CCN(C4CCCC4)C3)s2)n1 [I-93, N-((S)-((S)-1-cyclopentylpyrrolidin-3-yl)(4-(cyclopropanesulfonamido)pyridin-2-yl)methyl)-5-(6-ethoxypyrazin-2-yl)thiazole-2-carboxamide]",5 to 25 nM
10,"CCOc1cncc(-c2cnc(C(=O)N[C@H](c3cc(NS(=O)(=O)C4CC4)ccn3)[C@@H]3CCN(C4CCCC4)C3)s2)n1 [I-94, N-((S)-((R)-1-cyclopentylpyrrolidin-3-yl)(4-(cyclopropanesulfonamido)pyridin-2-yl)methyl)-5-(6-ethoxypyrazin-2-yl)thiazole-2-carboxamide]",> 100 nM
11,"CCOc1cncc(-c2cnc(C(=O)N[C@@H](c3cc(NS(=O)(=O)C4CC4)ccn3)[C@@H]3CCN(C4CCCC4)C3)s2)n1 [I-95, N-((R)-((R)-1-cyclopentylpyrrolidin-3-yl)(4-(cyclopropanesulfonamido)pyridin-2-yl)methyl)-5-(6-ethoxypyrazin-2-yl)thiazole-2-carboxamide]",5 to 25 nM
12,"CCOc1cncc(-c2cnc(C(=O)N[C@@H](c3cc(NS(=O)(=O)C4CC4)ccn3)[C@H]3CCN(C4CCCC4)C3)s2)n1 [I-96, N-((R)-((S)-1-cyclopentylpyrrolidin-3-yl)(4-(cyclopropanesulfonamido)pyridin-2-yl)methyl)-5-(6-ethoxypyrazin-2-yl)thiazole-2-carboxamide]",5 to 25 nM
13,"CCOc1cncc(-c2cnc(C(=O)N[C@@H](COC)c3nccc(NS(=O)(=O)C4CC4)n3)s2)n1 [I-98, (R)-N-(1-(4-(cyclopropanesulfonamido)pyrimidin-2-yl)-2-methoxyethyl)-5-(6-ethoxypyrazin-2-yl)thiazole-2-carboxamide]",25 to 50 nM
14,"CCOc1cncc(-c2cnc(C(=O)N[C@@H](C[C@H]3COCCN3C)c3cc(NS(=O)(=O)C4CC4)ccn3)s2)n1 [I-102, N-((S)-1-(4-(cyclopropanesulfonamido)pyridin-2-yl)-2-((S)-4-methylmorpholin-3-yl)ethyl)-5-(6-ethoxypyrazin-2-yl)thiazole-2-carboxamide]",50 to 100 nM
15,"CCOc1cncc(-c2cnc(C(=O)N[C@H](C[C@H]3COCCN3C)c3cc(NS(=O)(=O)C4CC4)ccn3)s2)n1 [I-104, N-((R)-1-(4-(cyclopropanesulfonamido)pyridin-2-yl)-2-((S)-4-methylmorpholin-3-yl)ethyl)-5-(6-ethoxypyrazin-2-yl)thiazole-2-carboxamide]",≤ 5 nM

# Continued, values first:
row,IC50,Compound
1,25 to 50 nM and 5 to 25 nM,"CCOc1cncc(-c2cnc(C(=O)N[C@H](c3cc(NS(=O)(=O)C4CC4)ccn3)[C@H]3CN(C)CCO3)s2)n1 [I-97, N-((R)-(4-(cyclopropanesulfonamido)pyridin-2-yl)((R)-4-methylmorpholin-2-yl)methyl)-5-(6-ethoxypyrazin-2-yl)thiazole-2-carboxamide]"
2,5 to 25 nM,"CCOc1cncc(-c2cnc(C(=O)N[C@H](c3cc(NS(=O)(=O)C4CC4)ccn3)[C@@H]3CN(C)CCO3)s2)n1 [I-99, N-((R)-(4-(cyclopropanesulfonamido)pyridin-2-yl)((S)-4-methylmorpholin-2-yl)methyl)-5-(6-ethoxypyrazin-2-yl)thiazole-2-carboxamide]"
3,5 to 25 nM,"CCOc1cncc(-c2cnc(C(=O)N[C@@H](c3cc(NS(=O)(=O)C4CC4)ccn3)[C@H]3CN(C)CCO3)s2)n1 [I-100, N-((S)-(4-(cyclopropanesulfonamido)pyridin-2-yl)((R)-4-methylmorpholin-2-yl)methyl)-5-(6-ethoxypyrazin-2-yl)thiazole-2-carboxamide]"
4,5 to 25 nM,"CCOc1cncc(-c2cnc(C(=O)N[C@@H](c3cc(NS(=O)(=O)C4CC4)ccn3)[C@@H]3CN(C)CCO3)s2)n1 [I-101, N-((S)-(4-(cyclopropanesulfonamido)pyridin-2-yl)((S)-4-methylmorpholin-2-yl)methyl)-5-(6-ethoxypyrazin-2-yl)thiazole-2-carboxamide]"
5,50 to 100 nM,"CCOc1cncc(-c2cnc(C(=O)N[C@H](c3cc(NS(=O)(=O)C4CC4)ccn3)[C@H]3CCN(CCF)C3)s2)n1 [I-107, N-((S)-(4-(cyclopropanesulfonamido)pyridin-2-yl)((S)-1-(2-fluoroethyl)pyrrolidin-3-yl)methyl)-5-(6-ethoxypyrazin-2-yl)thiazole-2-carboxamide]"
6,5 to 25 nM,"CCOc1cncc(-c2cnc(C(=O)N[C@H](c3cc(NS(=O)(=O)C4CC4)ccn3)[C@@H]3CCN(CCF)C3)s2)n1 [I-108, N-((S)-(4-(cyclopropanesulfonamido)pyridin-2-yl)((R)-1-(2-fluoroethyl)pyrrolidin-3-yl)methyl)-5-(6-ethoxypyrazin-2-yl)thiazole-2-carboxamide]"
7,5 to 25 nM,"CCOc1cncc(-c2cnc(C(=O)N[C@@H](c3cc(NS(=O)(=O)C4CC4)ccn3)[C@@H]3CCN(CCF)C3)s2)n1 [I-109, N-((R)-(4-(cyclopropanesulfonamido)pyridin-2-yl)((R)-1-(2-fluoroethyl)pyrrolidin-3-yl)methyl)-5-(6-ethoxypyrazin-2-yl)thiazole-2-carboxamide]"
8,≤ 5 nM,"CCOc1cncc(-c2cnc(C(=O)N[C@@H](c3cc(NS(=O)(=O)C4CC4)ccn3)[C@H]3CCN(CCF)C3)s2)n1 [I-110, N-((R)-(4-(cyclopropanesulfonamido)pyridin-2-yl)((S)-1-(2-fluoroethyl)pyrrolidin-3-yl)methyl)-5-(6-ethoxypyrazin-2-yl)thiazole-2-carboxamide]"
9,5 to 25 nM,"CCOc1cncc(-c2cnc(C(=O)N[C@H](c3cc(NS(=O)(=O)C4CC4)ccn3)[C@H]3CCN(C4CC4)C3)s2)n1 [I-112, N-((S)-(4-(cyclopropanesulfonamido)pyridin-2-yl)((S)-1-cyclopropylpyrrolidin-3-yl)methyl)-5-(6-ethoxypyrazin-2-yl)thiazole-2-carboxamide]"
10,5 to 25 nM,"CCOc1cncc(-c2cnc(C(=O)N[C@H](c3cc(NS(=O)(=O)C4CC4)ccn3)[C@@H]3CCN(C4CC4)C3)s2)n1 [I-113, N-((S)-(4-(cyclopropanesulfonamido)pyridin-2-yl)((R)-1-cyclopropylpyrrolidin-3-yl)methyl)-5-(6-ethoxypyrazin-2-yl)thiazole-2-carboxamide]"
